According to the CheMixHub drug solubility set:

Experiment: xn = mol fraction of the nth substance listed, in the solute-free solvent

COC(=O)Nc1nc2ccccc2[nH]1 + CCO + O
solubility (g/100 g solution)
Conditions	278.15 K	283.15 K	288.15 K	293.15 K	298.15 K	303.15 K	308.15 K	313.15 K	318.15 K
x2 = 0.0417	0.00112	0.00135	0.00165	0.00201	0.00246	0.00289	0.00343	0.00403	0.00475
x2 = 0.08923	0.00223	0.00272	0.0034	0.00411	0.00508	0.00599	0.00715	0.00849	0.01
x2 = 0.1435	0.00325	0.00396	0.00501	0.00619	0.00769	0.0092	0.0111	0.0133	0.0158
x2 = 0.2067	0.00379	0.00471	0.00609	0.00761	0.00949	0.0116	0.0142	0.0172	0.0207
x2 = 0.2813	0.00391	0.00497	0.00649	0.00846	0.0105	0.013	0.0162	0.0199	0.0243
x2 = 0.3701	0.00383	0.0049	0.00658	0.00849	0.011	0.0138	0.0174	0.0219	0.0271
x2 = 0.4762	0.00369	0.0048	0.00651	0.00862	0.0114	0.0146	0.0187	0.0237	0.0298
x2 = 0.6102	0.00358	0.00477	0.00664	0.00884	0.0118	0.0155	0.0202	0.0261	0.0332
x2 = 0.7803	0.0035	0.00477	0.0068	0.0092	0.0125	0.0167	0.0221	0.0289	0.0373

c1ccc2c(c1)CCc1ccccc1N2 + CCO + O
solubility (g/100 g solution)
Conditions	283.15 K	288.15 K	293.15 K	298.15 K	303.15 K	308.15 K	313.15 K	318.15 K	323.15 K	328.15 K
x2 = 0.04179	0.0221	0.0315	0.0433	0.0609	0.0803	0.109	0.143	0.188	0.245	0.315
x2 = 0.08913	0.114	0.158	0.211	0.288	0.371	0.489	0.626	0.801	1.02	1.28
x2 = 0.1443	0.214	0.292	0.388	0.52	0.666	0.866	1.1	1.39	1.75	2.17
x2 = 0.207	0.24	0.326	0.432	0.576	0.738	0.954	1.21	1.53	1.91	2.38
x2 = 0.2814	0.229	0.311	0.414	0.548	0.706	0.909	1.15	1.46	1.82	2.27
x2 = 0.3697	0.231	0.313	0.417	0.55	0.71	0.909	1.15	1.46	1.82	2.26
x2 = 0.4785	0.269	0.363	0.465	0.612	0.779	1	1.28	1.62	2.02	2.49
x2 = 0.6105	0.316	0.423	0.561	0.728	0.94	1.19	1.5	1.89	2.33	2.88
x2 = 0.7769	0.374	0.498	0.659	0.848	1.09	1.37	1.73	2.16	2.66	3.28

CC(C)C(=O)Nc1ccc([N+](=O)[O-])c(C(F)(F)F)c1 + CCOC(C)=O + CC(C)O
solubility (g/100 g solution)
Conditions	278.15 K	283.15 K	288.15 K	293.15 K	298.15 K	303.15 K	308.15 K	313.15 K	318.15 K	323.15 K
x2 = 0.1	19.4	22.7	26.3	30.2	33.9	38.7	43.5	48.3	53	57.4
x2 = 0.2	28.6	30.8	33.4	36.8	40.7	44.4	48.2	51.8	55.6	59.2
x2 = 0.3	30.6	34.2	38	41.5	44.9	48.2	51.3	54.9	58.2	61.5
x2 = 0.4	32.7	36.3	39.5	42.8	45.9	49	52.5	55.8	58.7	61.9
x2 = 0.5	33.7	37.2	40.7	44	46.9	49.8	52.9	56.1	59.3	62.1
x2 = 0.6	34.3	38	41.5	44.7	47.6	50.4	53.3	56.4	59.4	62.5
x2 = 0.7	34.5	37.8	41	44.3	47.4	50.3	53.4	56.4	59.4	62.4
x2 = 0.8	34.2	37.7	41.3	44.7	47.8	50.9	53.6	56.7	59.8	62.9
x2 = 0.9	34.4	37.9	41.5	44.8	47.8	51.1	53.9	56.6	59.5	62.6
